From publication PMC5613635 (Biochemistry and Biophysics Reports, 2016) come the findings set out here.

This experiment concerns the target T1, reconstituted TmAHAS (MI + MS) (Thermotoga maritima, UniProt Q9WZ18).
T1 sequence (Q9WZ18 1-584): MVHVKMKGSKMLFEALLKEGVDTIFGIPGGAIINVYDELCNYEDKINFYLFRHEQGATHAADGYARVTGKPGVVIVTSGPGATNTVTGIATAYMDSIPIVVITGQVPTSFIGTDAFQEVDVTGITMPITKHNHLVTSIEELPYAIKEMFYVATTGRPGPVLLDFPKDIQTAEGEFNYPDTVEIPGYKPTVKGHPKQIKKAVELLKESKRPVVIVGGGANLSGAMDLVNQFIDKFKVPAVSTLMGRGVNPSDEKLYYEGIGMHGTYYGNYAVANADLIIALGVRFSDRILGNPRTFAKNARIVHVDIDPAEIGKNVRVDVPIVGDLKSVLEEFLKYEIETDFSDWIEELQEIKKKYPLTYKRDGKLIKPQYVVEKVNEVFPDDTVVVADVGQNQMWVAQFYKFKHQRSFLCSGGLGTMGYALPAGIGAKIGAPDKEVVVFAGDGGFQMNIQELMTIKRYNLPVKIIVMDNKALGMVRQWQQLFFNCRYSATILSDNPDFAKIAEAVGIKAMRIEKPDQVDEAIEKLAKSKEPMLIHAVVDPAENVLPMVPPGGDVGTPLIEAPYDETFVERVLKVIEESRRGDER
T1 sequence (Q9WZ19 1-171 partner): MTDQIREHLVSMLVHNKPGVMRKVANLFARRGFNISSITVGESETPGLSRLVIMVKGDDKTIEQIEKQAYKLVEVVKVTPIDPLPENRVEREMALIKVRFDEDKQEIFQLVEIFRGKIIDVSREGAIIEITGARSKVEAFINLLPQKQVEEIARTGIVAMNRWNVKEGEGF
The experiment in a line: acetaldehyde. The experiment is classed as biochemical. The note with it: reconstituted catalytic and regulatory subunits; 80 °C, anaerobic.

Turning to `CC(=O)C(=O)O` [pyruvate], the “acetaldehyde (PDC) and acetolactate (AHAS) production from pyruvate” value is “The reconstitution of the enzyme TmAHAS resulted in considerable and reproducible increase of both PDC”.
